Key:
Format in all cases: physicochemical
[1] = repetition of prior art forms and test of their properties (stability in water, phase stability); details: prior art processes repeated by the inventors; competitive stability test in water
Text: The above properties may lead to problems in their pharmaceutical formulations, including variations in active substance content, poor reproducibility, impurities increasing during storage, efficacy decreasing, and so on. Moreover, the known canagliflozin is amorphous.

[2] = competitive stability test in water at room temperature with Monohydrate Form HI (XRPD); details: equal 250 mg samples of Form HI, known canagliflozin, Form A and Form hH1 mixed with 5 mL water, stirred 7 days
Protocol: The competitive stability test of canagliflozin Monohydrate Form HI of the present invention, the known canagliflozin, canagliflozin hemihydrate Form hH1 and canagliflozin Form A was performed in water at room temperature.
Conditions of the competitive stability test were as follows: take equal quantity (250 mg) samples of canagliflozin Monohydrate Form HI of the present invention, canagliflozin prepared in the preparation example 1, canagliflozin Form A prepared in the preparation example 2 and canagliflozin hemihydrate Form hH1 prepared in the preparation example 3 respectively, mix the samples with 5 mL of water to form a suspension. The suspension was stirred for 7 days at room temperature and then XRPD characterization analysis was performed.

[3] = competitive stability test in water at room temperature with Monohydrate Form HII (XRPD); details: equal 250 mg samples of Form HII, known canagliflozin, Form A and Form hH1 mixed with 3 mL water, stirred 7 days
Protocol: The competitive stability test among canagliflozin Monohydrate Form HII of the present invention, the known Canagliflozin, canagliflozin hemihydrate Form hH1 and canagliflozin Form A was performed in water at room temperature.
Conditions of the competitive stability test were as follows: take equal quantity (250 mg) samples of canagliflozin Monohydrate Form HII of the present invention, canagliflozin prepared in the preparation example 1 in the present invention, canagliflozin Form A prepared in the preparation example 2 in the present invention and canagliflozin hemihydrate Form hH1 prepared in the preparation 3 in the present invention, respectively, and mix the samples with 3 mL of water to form a suspension. The suspension was stirred for 7 days at room temperature and then XRPD characterization analysis was performed.

[4] = storage in desiccator at room temperature and controlled relative humidity; details: room temperature

Compound	stability in water / phase stability of repeated prior art forms [1]	crystalline form after competitive stability test in water [2]	crystalline form after competitive stability test in water [3]	crystalline form after storage ([4]; desiccator, 10% to 90% RH, 4 months)	crystalline form after storage ([4]; desiccators, relative humidities from 57% to 75%, continued storage for 4 months)	crystalline form after storage ([4]; desiccators, relative humidities from 57% to 75%, 1 day)
Cc1ccc([C@@H]2O[C@H](CO)[C@@H](O)[C@H](O)[C@H]2O)cc1Cc1ccc(-c2ccc(F)cc2)s1 [Cangaliflozin Form B]	poor phase stability					
Cc1ccc([C@@H]2O[C@H](CO)[C@@H](O)[C@H](O)[C@H]2O)cc1Cc1ccc(-c2ccc(F)cc2)s1 [canagliflozin Form A]	not stable in water	transformed to canagliflozin Monohydrate Form HI	transformed to canagliflozin Monohydrate Form HII			
Cc1ccc([C@@H]2O[C@H](CO)[C@@H](O)[C@H](O)[C@H]2O)cc1Cc1ccc(-c2ccc(F)cc2)s1 [canagliflozin Monohydrate Form HI, canagliflozin monohydrate Form HI]		maintained its original crystalline form		remained unchanged		
Cc1ccc([C@@H]2O[C@H](CO)[C@@H](O)[C@H](O)[C@H]2O)cc1Cc1ccc(-c2ccc(F)cc2)s1 [canagliflozin Monohydrate Form HII]			maintained its original crystalline form		remained unchanged	
Cc1ccc([C@@H]2O[C@H](CO)[C@@H](O)[C@H](O)[C@H]2O)cc1Cc1ccc(-c2ccc(F)cc2)s1.O [canagliflozin hemihydrate Form hH1]	poor phase stability	transformed to canagliflozin Monohydrate Form HI	transformed to canagliflozin Monohydrate Form HII			
Cc1ccc([C@@H]2O[C@H](CO)[C@@H](O)[C@H](O)[C@H]2O)cc1Cc1ccc(-c2ccc(F)cc2)s1 [known canagliflozin, (1S)-1,5-anhydro-1-[3-[[5-(4-fluorophenyl)-2-thienyl]methyl]-4-methylphenyl]-D-glucitol]	not stable in water	transformed to canagliflozin Monohydrate Form HI	transformed to canagliflozin Monohydrate Form HII			transformed to canagliflozin Monohydrate Form HII

— patent US20170145000A1, “CANAGLIFLOZIN MONOHYDRATE AND ITS CRYSTALLINE FORMS, PREPARATION METHODS AND USES THEREOF” (Hangzhou Pushai Pharmaceutical Technology Co., Ltd., priority 2014, published 2017)
